In patent publication US10174016B2 (BAYER AKTIENGESELLSCHAFT, priority 2014, dated 2019):

Key:
human P2X3 receptor = human P2X3 receptor (Homo sapiens (Human), UniProt P56373); assay: Intracellular calcium measurement (FLIPR, Fluo-4) of antagonist activity at human P2X3 receptors; assay type: cell-based; details: human P2X3, FLIPR calcium assay, agonist α,β-Me-ATP; read-out: hP2X3 IC50
Outline: (§1)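 Cells expressing human P2X3 or P2X2/3, loaded with Fluo-4, preincubated 30 min at 37° C. with compound (1% DMSO final), then challenged with α,β-Me-ATP at its EC80. Peak FLIPR fluorescence over 90 sec gave % response; IC50, maximal inhibition and Hill slope from triplicates.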

human P2X2/3 receptor = human P2X2/3 receptor (Homo sapiens (Human), UniProt P56373+Q9UBL9); assay: Intracellular calcium measurement (FLIPR, Fluo-4) of antagonist activity at human P2X2/3 receptors; assay type: cell-based; details: human P2X2/3, FLIPR calcium assay, agonist α,β-Me-ATP; read-out: hP2X2/3 IC50
human P2X2/3 receptor, sequence (P56373 whole entry): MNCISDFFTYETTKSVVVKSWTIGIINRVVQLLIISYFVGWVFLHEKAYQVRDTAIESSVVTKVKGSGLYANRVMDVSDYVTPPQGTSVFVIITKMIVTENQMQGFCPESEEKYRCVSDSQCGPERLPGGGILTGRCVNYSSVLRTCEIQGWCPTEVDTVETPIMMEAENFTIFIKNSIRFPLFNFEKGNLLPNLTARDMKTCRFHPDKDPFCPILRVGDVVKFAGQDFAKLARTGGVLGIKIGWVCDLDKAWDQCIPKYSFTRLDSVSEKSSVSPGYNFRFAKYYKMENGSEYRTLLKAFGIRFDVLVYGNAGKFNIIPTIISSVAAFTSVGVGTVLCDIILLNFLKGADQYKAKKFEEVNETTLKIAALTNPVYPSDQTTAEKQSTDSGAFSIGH
human P2X2/3 receptor, sequence (Q9UBL9 whole entry): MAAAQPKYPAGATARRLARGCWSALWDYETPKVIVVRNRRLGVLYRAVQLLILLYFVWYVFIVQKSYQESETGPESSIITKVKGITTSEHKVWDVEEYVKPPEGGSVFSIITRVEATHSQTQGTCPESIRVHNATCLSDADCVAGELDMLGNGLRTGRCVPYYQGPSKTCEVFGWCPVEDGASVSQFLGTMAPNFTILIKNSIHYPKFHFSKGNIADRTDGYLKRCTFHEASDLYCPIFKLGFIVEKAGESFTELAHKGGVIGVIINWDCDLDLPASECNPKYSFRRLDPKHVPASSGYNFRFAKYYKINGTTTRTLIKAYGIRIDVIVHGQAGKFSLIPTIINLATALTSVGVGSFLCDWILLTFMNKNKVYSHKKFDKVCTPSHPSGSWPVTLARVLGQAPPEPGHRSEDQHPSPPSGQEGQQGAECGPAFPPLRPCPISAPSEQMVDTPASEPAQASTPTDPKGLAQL
Outline: as §1

human P2X3 receptor, sequence (P56373 whole entry): as the sequence (P56373 whole entry) above

Row | IC50 (human P2X3 receptor) [nM] | IC50 (human P2X2/3 receptor) [nM] | SMILES
1 | 4 | 101 | Cc1cnc(-c2cc(OC[C@@H]3CCOC3)cc(C(=O)N[C@H](C)c3cnc(C(F)(F)F)nc3)c2)s1 [Example 73, 3-(5-Methyl-1,3-thiazol-2-yl)-5-[(3R)-tetrahydrofuran-3-ylmethoxy]-N-[(1R)-1-[2-(trifluoromethyl)pyrimidin-5-yl]ethyl]benzamide]
2 | 14 | 1110 | Cc1cnc([C@@H](C)NC(=O)c2cc(OC[C@@H]3CCOC3)cc(-c3ncc(C)s3)c2)cn1 [Example 74, N-[(1R)-1-(5-Methylpyrazin-2-yl)ethyl]-3-(5-methyl-1,3-thiazol-2-yl)-5-[(3R)-tetrahydrofuran-3-ylmethoxy]benzamide]
3 | 38 | 6640 | Cc1ccc(CNC(=O)c2cc(OC[C@@H]3CCOC3)cc(-c3ncc(C)s3)c2)nn1 [Example 75, N-[(6-Methylpyridazin-3-yl)methyl]-3-(5-methyl-1,3-thiazol-2-yl)-5-[(3R)-tetrahydrofuran-3-ylmethoxy]benzamide]
4 | 201 | 5790 | Cc1cnc(CNC(=O)c2cc(OC[C@@H]3CCOC3)cc(-c3ncc(C)s3)c2)cn1 [Example 76, N-[(5-Methylpyrazin-2-yl)methyl]-3-(5-methyl-1,3-thiazol-2-yl)-5-[(3R)-tetrahydrofuran-3-ylmethoxy]benzamide]
5 | 10 | 183 | Cc1ccc([C@@H](C)NC(=O)c2cc(OC[C@@H]3CCOC3)cc(-c3ncc(C)s3)c2)nn1 [Example 77, N-[(1R)-1-(6-Methylpyridazin-3-yl)ethyl]-3-(5-methyl-1,3-thiazol-2-yl)-5-[(3R)-tetrahydrofuran-3-ylmethoxy]benzomide]
6 | 6 | 83 | Cc1cnc(-c2cc(OC[C@@H]3CCOC3)cc(C(=O)NC(C)c3ncc(Cl)cc3F)c2)s1 (stereo partly drawn) [Example 78, N-[1-(5-Chloro-3-fluoropyridin-2-yl)ethyl]-3-(5-methyl-1,3-thiazol-2-yl)-5-[(3R)-tetrahydrofuran-3-ylmethoxy]benzamide]
7 | 9 | 413 | Cc1cnc(-c2cc(OC[C@@H]3CCOC3)cc(C(=O)N[C@H](C)c3ccc(C(F)(F)F)nn3)c2)s1 [Example 79, 3-(5-Methyl-1,3-thiazol-2-yl)-5-[(3R)-tetrahydrofuran-3-ylmethoxy]-N-[(1R)-1-[6-(trifluoromethyl)pyridazin-3-yl]ethyl]benzamide]
8 | 12 | 339 | Cc1cnc(-c2cc(OC3CCOCC3)cc(C(=O)NC(C)c3ncc(F)cc3Cl)c2)s1 (stereo not shown) [Example 80, N-[1-(3-Chloro-5-fluoropyridin-2-yl)ethyl]-3-(5-methyl-1,3-thiazol-2-yl)-5-(tetrahydro-2H-pyran-4-yloxy)benzamide]
9 | 3 | 34 | Cc1cnc(-c2cc(OC3CCOCC3)cc(C(=O)NC(C)c3ncc(Cl)cc3F)c2)s1 (stereo not shown) [Example 81, N-[1-(5-Chloro-3-fluoropyridin-2-yl)ethyl]-3-(5-methyl-1,3-thiazol-2-yl)-5-(tetrahydro-2H-pyran-4-yloxy)benzamide]
10 | 28 | 380 | Cc1ccc(CNC(=O)c2cc(OC3CCOCC3)cc(-c3ncc(C)s3)c2)nn1 [Example 82, N-[(6-Methylpyridazin-3-yl)methyl]-3-(5-methyl-1,3-thiazol-2-yl)-5-(tetrahydro-2H-pyran-4-yloxy)benzamide]
11 | 125 | 1160 | Cc1cnc(CNC(=O)c2cc(OC3CCOCC3)cc(-c3ncc(C)s3)c2)cn1 [Example 83, N-[(5-Methylpyrazin-2-yl)methyl]-3-(5-methyl-1,3-thiazol-2-yl)-5-(tetrahydro-2H-pyran-4-yloxy)benzamide]
12 | 10 | 36 | Cc1cnc(-c2cc(OC3CCOCC3)cc(C(=O)N[C@H](C)c3cnc(C(F)(F)F)nc3)c2)s1 [Example 85, 3-(5-Methyl-1,3-thiazol-2-yl)-5-(tetrahydro-2H-pyran-4-yloxy)-N-{(1R)-1-[2-(trifluoromethyl)pyrimidin-5-yl]ethyl}benzamide]
13 | 12 | 144 | COc1ccc([C@@H](C)NC(=O)c2cc(OC3CCOCC3)cc(-c3ncc(C)s3)c2)cn1 [Example 86, N-[(1R)-1-(6-Methoxypyridin-3-yl)ethyl]-3-(5-methyl-1,3-thiazol-2-yl)-5-(tetrahydro-2H-pyran-4-yloxy)benzamide]
14 | 15 | 119 | Cc1ccc([C@@H](C)NC(=O)c2cc(OC3CCOCC3)cc(-c3ncc(C)s3)c2)nn1 [Example 87, N-[(1R)-1-(6-Methylpyridazin-3-yl)ethyl]-3-(5-methyl-1,3-thiazol-2-yl)-5-(tetrahydro-2H-pyran-4-yloxy)benzamide]
15 | 30 | 217 | COc1ccc(CNC(=O)c2cc(OC3CCOCC3)cc(-c3ncc(C)s3)c2)nn1 [Example 88, N-[(6-Methoxypyridazin-3-yl)methyl]-3-(5-methyl-1,3-thiazol-2-yl)-5-(tetrahydro-2H-pyran-4-yloxy)benzamide]
16 | 111 | 710 | CC[C@@H](NC(=O)c1cc(OC2CCOCC2)cc(-c2ncc(C)s2)c1)c1cnc(C(F)(F)F)nc1 [Example 90, 3-(5-Methyl-1,3-thiazol-2-yl)-5-(tetrahydro-2H-pyran-4-yloxy)-N-{(1R)-1-[2-(trifluoromethyl)pyrimidin-5-yl]propyl}benzamide]
17 | 19 | 133 | Cc1ccc([C@@H](C)NC(=O)c2cc(OC3CCOCC3)cc(-c3ncc(C)s3)c2)cn1 [Example 91, N-[(1R)-1-(6-Methylpyridin-3-yl)ethyl]-3-(5-methyl-1,3-thiazol-2-yl)-5-(tetrahydro-2H-pyran-4-yloxy)benzamide]
18 | 24 | 317 | Cc1cnc(-c2cc(OC3CCOCC3)cc(C(=O)N[C@H](C)c3nnc(C)s3)c2)s1 [Example 92, N-[(1R)-1-(5-Methyl-1,3,4-thiadiazol-2-yl)ethyl]-3-(5-methyl-1,3-thiazol-2-yl)-5-(tetrahydro-2H-pyran-4-yloxy)benzamide]
19 | 8 | 385 | Cc1ccc(CNC(=O)c2cc(OCC3CCOCC3)cc(-c3ncc(C)s3)c2)nn1 [Example 93, N-[(6-Methylpyridazin-3-yl)methyl]-3-(5-methyl-1,3-thiazol-2-yl)-5-(tetrahydro-2H-pyran-4-ylmethoxy)benzamide]
20 | 7 | 132 | Cc1cnc([C@@H](C)NC(=O)c2cc(OCC3CCOCC3)cc(-c3ncc(C)s3)c2)cn1 [Example 94, N-[(1R)-1-(5-Methylpyrazin-2-yl)ethyl]-3-(5-methyl-1,3-thiazol-2-yl)-5-(tetrahydro-2H-pyran-4-ylmethoxy)benzamide]
21 | 2 | 129 | Cc1cnc(-c2cc(OCC3CCOCC3)cc(C(=O)NC(C)c3ncc(Cl)cc3F)c2)s1 (stereo not shown) [Example 95, N-[1-(5-Chloro-3-fluoropyridin-2-yl)ethyl]-3-(5-methyl-1,3-thiazol-2-yl)-5-(tetrahydro-2H-pyran--4-ylmethoxy)benzamide]
22 | 18 | 1080 | Cc1cnc(-c2cc(OCC3CCOCC3)cc(C(=O)NC(C)c3ncc(F)cc3Cl)c2)s1 (stereo not shown) [Example 96, N-[1-(3-Chloro-5-fluoropyridin-2-yl)ethyl]-3-(5-methyl-1,3-thiazol-2-yl)-5-(tetrahydro-2H-pyran-4-ylmethoxy)benzamide]
23 | 15 | 1690 | Cc1cnc(CNC(=O)c2cc(OCC3CCOCC3)cc(-c3ncc(C)s3)c2)cn1 [Example 97, N-[(5-Methylpyrazin-2-yl)methyl]-3-(5-methyl-1,3-thiazol-2-yl)-5-(tetrahydro-2H-pyran-4-ylmethoxy)benzamide]
24 | 1 | 19 | Cc1cnc(-c2cc(OCC3CCOCC3)cc(C(=O)N[C@H](C)c3cnc(C(F)(F)F)nc3)c2)s1 [Example 98, 3-(5-Methyl-1,3-thiazol-2-yl)-5-(tetrahydro-2H-pyran-4-ylmethoxy)-N-[(1R)-1-[2-(trifluoromethyl)pyrimidin-5-yl]ethyl]benzamide]
25 | 2 | 27 | Cc1ccc([C@@H](C)NC(=O)c2cc(OCC3CCOCC3)cc(-c3ncc(C)s3)c2)nn1 [Example 99, N-[(1R)-1-(6-Methylpyridazin-3-yl)ethyl]-3-(5-methyl-1,3-thiazol-2-yl)-5-(tetrahydro-2H-pyran-4-ylmethoxy)benzamide]
26 | 6 | 16 | Cc1cc(Oc2cc(C(=O)N[C@H](C)c3ccc(C)nn3)cc(-c3ncc(C)s3)c2)ccn1 [Example 100, N-[(1R)-1-(6-Methylpyridazin-3-yl)ethyl]-3-[(2-methylpyridin-4-yl)oxy]-5-(5-methyl-1,3-thiazol-2-yl)benzamide]
27 | 15 | 60 | Cc1cc(Oc2cc(C(=O)NCc3ccc(C)nn3)cc(-c3ncc(C)s3)c2)ccn1 [Example 101, N-[(6-Methylpyridazin-3-yl)methyl]-3-[(2-methylpyridin-4-yl)oxy]-5-(5-methyl-1,3-thiazol-2-yl)benzamide]
28 | 10 | 57 | Cc1cnc([C@@H](C)NC(=O)c2cc(Oc3ccnc(C)c3)cc(-c3ncc(C)s3)c2)cn1 [Example 102, N-[(1R)-1-(5-Methylpyrazin-2-yl)ethyl]-3-[(2-methylpyridin-4-yl)oxy]-5-(5-methyl-1,3-thiazol-2-yl)benzamide]
29 | 2 | 14 | Cc1cc(Oc2cc(C(=O)N[C@H](C)c3cnc(C(F)(F)F)nc3)cc(-c3ncc(C)s3)c2)ccn1 [Example 103, 3-[(2-Methylpyridin-4-yl)oxy]-5-(5-methyl-1,3-thiazol-2-yl)-N-{(1R)-1-[2-(trifluoromethyl)pyrimidin-5-yl]ethyl}benzamide]
